Measured values from publication PMC5871875 (Journal of medicinal chemistry, 2017).
Values belong to the compound of their own block, whether it stands above or below them.

Tests used:
AEP [1] = molecular target: T1, AEP (Homo sapiens, UniProt Q99538); assay: IC50 assay against pure AEP; assay type: biochemical
T1 sequence (Q99538 18-323 limits assumed): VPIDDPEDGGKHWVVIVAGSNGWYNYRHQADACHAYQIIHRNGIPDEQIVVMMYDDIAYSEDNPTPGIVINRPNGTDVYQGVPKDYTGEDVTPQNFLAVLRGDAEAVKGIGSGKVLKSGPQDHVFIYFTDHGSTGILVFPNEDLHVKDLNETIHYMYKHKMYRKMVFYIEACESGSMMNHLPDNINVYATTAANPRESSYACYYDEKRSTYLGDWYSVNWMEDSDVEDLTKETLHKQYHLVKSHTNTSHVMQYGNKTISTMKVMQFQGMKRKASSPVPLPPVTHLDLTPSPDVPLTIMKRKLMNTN

cathepsin-L = cathepsin-L (Homo sapiens, UniProt P07711); assay: Inhibition specificity assay, cathepsin-L; assay type: biochemical
Sequence of cathepsin-L (P07711 114-333, species assumed): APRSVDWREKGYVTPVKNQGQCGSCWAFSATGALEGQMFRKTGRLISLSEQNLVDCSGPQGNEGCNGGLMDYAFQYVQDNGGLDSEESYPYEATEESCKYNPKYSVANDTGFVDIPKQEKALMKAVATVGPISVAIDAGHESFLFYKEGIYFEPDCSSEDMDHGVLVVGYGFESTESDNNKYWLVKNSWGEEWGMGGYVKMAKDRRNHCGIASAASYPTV

AEP [2] = molecular target: T1, AEP; assay: Inhibition kinetics assay of AEP
[3] = in the presence or absence of NADPH; cited from earlier work
AEP [4] = molecular target: T1, AEP; assay: Time course inactivation assay of AEP; assay type: biochemical; conditions: nonlinear progress curves
CaCo-2 cells = assay: Caco-2 permeability assay; assay type: in vitro ADME
[5] = test system: major cytochrome P450 isozymes; conditions: cited from earlier work
purified, active AEP = molecular target: T2, purified, active AEP (Homo sapiens, UniProt Q99538); assay: SAR analysis: residual activity of purified, active AEP; conditions: 1 μM compound, 50 nM AEP, 5 μM substrate peptide
T2 sequence (Q99538 18-323 limits assumed): T1 sequence (Q99538 18-323 limits assumed)

[6] = test system: endogenous MMP-2 cleavage; assay: Gelatin zymography: endogenous MMP-2 cleavage in MDA-MB-231 cells; assay type: cell-based, human; conditions: MDA-MB-231, 1, 2, 5 and 10 μM
MDA-MB-231 cells [7] = assay: In vivo spontaneous metastasis assay; set-up: species or system nude mice; conditions: 42 days
MDA-MB-231 cells [8] = assay: Cell proliferation/viability; assay type: cell-based, human; conditions: MDA-MB-231, doses of the MMP-2 cleavage experiment (1-10 μM)
[9] = Toxicity observations in treated tumor-bearing mice; assay type: in vivo, nude mice; conditions: 3 or 10 mg/kg oral, 42 days

increased potency against AEP compared to compound 38 (AEP [1]): about 2 fold | IC50 against AEP (AEP [1]; 10 μM Cbz-Ala-Ala-Asn-AMC, 50 nM AEP): submicromolar | inhibition of cathepsin-L (cathepsin-L): able to inhibit
Structure (SMILES): Cn1c(=O)c2c(nc(S)n2C)n(C)c1=O [38p]

mechanism of inhibition (AEP [2]): competitively inhibits | binding behaviour from time course inactivation (AEP [4]): slow-binding inhibitor | Caco-2 cell permeability (in words) (CaCo-2 cells): minimal
Structure (SMILES): Cn1c(=O)[nH]c(=O)c2c1nc(S)n2CC(O)COc1ccc(Cl)cc1 (centres unmarked) [compound 38]
stability in liver microsomes [3]: stable | inhibition of major cytochrome P450 isozymes [5]: did not significantly inhibit

loss in activity relative to parent compound 38 (purified, active AEP): > 2 fold
Structure (SMILES): Cn1c(=O)[nH]c(=O)c2c1nc(S)n2C[C@H](O)COc1ccccc1 [compound 38k]

Structure (SMILES): CCn1c(=O)c2c(nc(S)n2C)n(C)c1=O [compound 38u]
endogenous MMP-2 cleavage [6]: inhibited in a dose-dependent manner | number of metastatic lung nodules (MDA-MB-231 cells [7]; 3 mg/kg oral gavage): significantly decreased | lung metastasis (nodules) (MDA-MB-231 cells [7]; 10 mg/kg oral gavage): almost completely prevented | mammary tumor weight or volume versus control (MDA-MB-231 cells [7]; 3 or 10 mg/kg oral, data not shown): no significant difference | cell viability (MDA-MB-231 cells [8]): not affected | complete blood count (CBC) versus vehicle [9]: no significant difference | pathological examination of major organs (kidney, liver, bone marrow) [9]: did not exhibit any significant amount of toxicity | size of the liver versus vehicle [9]: remained similar | size of the spleen versus control [9]: slight increase | toxicity by body weight versus control [9]: no significant toxicity | inhibition of cathepsin-L (cathepsin-L): able to inhibit
